Experimental data published in ChEMBL document CHEMBL1909046, “DrugMatrix in vitro pharmacology data”.

How the values were obtained:
[1] = target: T1, Type-2 angiotensin II receptor (Homo sapiens, UniProt P50052); type: cell-based; conditions: cho-k1; note: in other assays of this panel Not Active means under 50% inhibition at 10 µM
T1 sequence (P50052 whole entry): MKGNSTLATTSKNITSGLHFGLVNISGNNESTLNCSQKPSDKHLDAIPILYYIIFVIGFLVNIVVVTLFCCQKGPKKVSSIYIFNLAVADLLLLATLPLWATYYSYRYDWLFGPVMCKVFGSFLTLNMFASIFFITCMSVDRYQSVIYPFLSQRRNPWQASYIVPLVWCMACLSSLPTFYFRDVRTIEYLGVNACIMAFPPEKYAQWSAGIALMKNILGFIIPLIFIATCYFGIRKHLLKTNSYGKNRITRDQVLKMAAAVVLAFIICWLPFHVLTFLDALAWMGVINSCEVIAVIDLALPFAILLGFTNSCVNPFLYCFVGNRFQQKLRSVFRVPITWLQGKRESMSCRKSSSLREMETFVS

B2 bradykinin receptor = target: T2, B2 bradykinin receptor (Homo sapiens, UniProt P30411); type: cell membranes, Membrane; conditions: chem-1; note: in other assays of this panel Not Active means under 50% inhibition at 10 µM
T2 sequence (P30411 whole entry): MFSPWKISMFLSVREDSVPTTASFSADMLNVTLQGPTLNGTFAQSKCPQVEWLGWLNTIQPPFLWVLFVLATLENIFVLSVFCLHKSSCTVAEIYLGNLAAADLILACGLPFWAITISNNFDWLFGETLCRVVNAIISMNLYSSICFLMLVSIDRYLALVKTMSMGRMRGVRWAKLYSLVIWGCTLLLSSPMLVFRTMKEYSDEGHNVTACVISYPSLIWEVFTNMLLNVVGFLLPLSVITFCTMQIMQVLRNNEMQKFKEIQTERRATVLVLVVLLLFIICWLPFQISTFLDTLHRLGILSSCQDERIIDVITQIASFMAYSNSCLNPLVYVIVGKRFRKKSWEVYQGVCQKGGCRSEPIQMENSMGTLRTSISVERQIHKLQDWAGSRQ

Cannabinoid receptor 1 = Cannabinoid receptor 1 (Homo sapiens, UniProt P21554); type: cell membranes, Chem-1, Membrane; conditions: chem-1; note: in other assays of this panel Not Active means under 50% inhibition at 10 µM
Sequence of Cannabinoid receptor 1 (P21554 whole entry): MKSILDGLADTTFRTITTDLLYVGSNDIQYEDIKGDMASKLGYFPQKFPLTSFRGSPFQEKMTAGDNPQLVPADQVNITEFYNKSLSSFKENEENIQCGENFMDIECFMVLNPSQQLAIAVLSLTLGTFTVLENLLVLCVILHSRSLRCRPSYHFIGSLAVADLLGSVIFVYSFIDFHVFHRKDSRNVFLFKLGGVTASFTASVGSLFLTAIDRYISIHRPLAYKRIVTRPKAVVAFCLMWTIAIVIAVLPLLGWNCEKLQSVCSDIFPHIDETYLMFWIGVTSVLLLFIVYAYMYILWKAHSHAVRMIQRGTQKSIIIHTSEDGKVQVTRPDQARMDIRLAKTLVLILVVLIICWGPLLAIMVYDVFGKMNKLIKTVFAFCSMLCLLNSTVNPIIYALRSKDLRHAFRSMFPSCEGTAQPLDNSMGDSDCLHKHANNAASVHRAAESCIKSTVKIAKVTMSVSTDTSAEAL

D(4) dopamine receptor = target: T3, D(4) dopamine receptor (Homo sapiens, UniProt P21917); assay: DRUGMATRIX: Dopamine D4.2 radioligand binding (ligand: [3H] Spiperone); type: cell membranes, CHO-K1, Membrane; conditions: cho-k1; Not Active = under 50% inhibition at 10 µM
T3 sequence (P21917 whole entry): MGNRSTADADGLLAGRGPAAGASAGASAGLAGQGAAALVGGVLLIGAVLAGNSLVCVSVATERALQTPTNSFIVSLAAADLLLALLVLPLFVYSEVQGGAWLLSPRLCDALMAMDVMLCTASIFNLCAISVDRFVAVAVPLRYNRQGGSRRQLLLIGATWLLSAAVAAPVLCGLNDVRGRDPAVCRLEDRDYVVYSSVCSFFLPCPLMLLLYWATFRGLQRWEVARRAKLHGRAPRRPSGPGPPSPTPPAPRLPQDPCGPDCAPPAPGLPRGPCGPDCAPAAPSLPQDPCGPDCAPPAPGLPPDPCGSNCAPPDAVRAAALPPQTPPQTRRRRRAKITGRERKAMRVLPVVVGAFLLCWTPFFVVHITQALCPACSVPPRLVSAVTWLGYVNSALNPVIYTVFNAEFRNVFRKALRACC

[2] = DRUGMATRIX: Glutamate, AMPA radioligand binding (ligand: [3H] AMPA); type: cell membranes, Rattus norvegicus, Wistar, Cerebral cortex, Membrane; conditions: Not Active = under 50% inhibition at 10 µM
[3] = DRUGMATRIX: Imidazoline I2, Central radioligand binding (ligand: [3H] Idazoxan); type: cell membranes, Rattus norvegicus, Wistar, Cerebral cortex, Membrane; conditions: Not Active = under 50% inhibition at 10 µM
[4] = target: T4, Cysteinyl leukotriene receptor 1 (Homo sapiens, UniProt Q9Y271); type: cell membranes, Membrane; conditions: cho-k1; note: in other assays of this panel Not Active means under 50% inhibition at 10 µM
T4 sequence (Q9Y271 whole entry): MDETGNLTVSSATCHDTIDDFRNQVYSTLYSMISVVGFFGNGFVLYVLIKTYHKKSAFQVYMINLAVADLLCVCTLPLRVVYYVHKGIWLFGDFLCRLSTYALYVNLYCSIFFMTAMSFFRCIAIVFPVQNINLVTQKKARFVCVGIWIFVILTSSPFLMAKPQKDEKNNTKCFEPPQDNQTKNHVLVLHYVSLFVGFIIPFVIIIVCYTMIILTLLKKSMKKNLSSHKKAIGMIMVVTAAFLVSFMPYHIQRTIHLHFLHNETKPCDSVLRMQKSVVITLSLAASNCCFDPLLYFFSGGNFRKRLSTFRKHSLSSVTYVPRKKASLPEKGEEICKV

Compound: CC[C@@H](C(=O)[C@@H](C)[C@@H](O)[C@H](C)[C@@H]1O[C@@H]([C@@H](CC)C(=O)O)CC[C@@H]1C)[C@H]1O[C@]2(C=C[C@@H](O)[C@]3(CC[C@@](C)([C@H]4CC[C@](O)(CC)[C@H](C)O4)O3)O2)[C@H](C)C[C@@H]1C [SALINOMYCIN]
- IC50 [1]: Not Active
- IC50 (B2 bradykinin receptor): Not Active
- IC50 (Cannabinoid receptor 1): Not Active
- IC50 (D(4) dopamine receptor): Not Active
- IC50 [2]: Not Active
- Ki [2]: Not Active
- IC50 [3]: Not Active
- Ki [3]: Not Active
- IC50 [4]: Not Active

Compound: O=C(Oc1ccccc1C(=O)O)c1ccccc1O [SALSALATE]
- IC50 [1]: Not Active
- IC50 (B2 bradykinin receptor): Not Active
- IC50 (Cannabinoid receptor 1): Not Active
- IC50 (D(4) dopamine receptor): Not Active
- IC50 [2]: Not Active
- Ki [2]: Not Active
- IC50 [3]: Not Active
- Ki [3]: Not Active
- IC50 [4]: Not Active

Compound: O=C(O)c1cn(-c2ccc(F)cc2)c2cc(N3CCNCC3)c(F)cc2c1=O [SARAFLOXACIN]
- IC50 [1]: Not Active
- IC50 (B2 bradykinin receptor): Not Active
- IC50 (Cannabinoid receptor 1): Not Active
- IC50 (D(4) dopamine receptor): Not Active
- IC50 [2]: Not Active
- Ki [2]: Not Active
- IC50 [3]: Not Active
- Ki [3]: Not Active
- IC50 [4]: Not Active

Compound: CC(C)NCC(O)c1ccc(NS(C)(=O)=O)cc1 (stereo unspecified) [SOTALOL]
- IC50 [1]: Not Active
- IC50 (B2 bradykinin receptor): Not Active
- IC50 (Cannabinoid receptor 1): Not Active
- IC50 (D(4) dopamine receptor): Not Active
- IC50 [2]: Not Active
- Ki [2]: Not Active
- IC50 [3]: Not Active
- Ki [3]: Not Active
- IC50 [4]: Not Active

Compound: O.O.O.O.O.O.[Cl-].[Cl-].[Sr+2] [STRONTIUM CHLORIDE HEXAHYDRATE]
- IC50 [1]: Not Active
- IC50 (B2 bradykinin receptor): Not Active
- IC50 (Cannabinoid receptor 1): Not Active
- IC50 (D(4) dopamine receptor): Not Active
- IC50 [2]: Not Active
- Ki [2]: Not Active
- IC50 [3]: Not Active
- Ki [3]: Not Active
- IC50 [4]: Not Active

Compound: O=C1C(CC[S+]([O-])c2ccccc2)C(=O)N(c2ccccc2)N1c1ccccc1 (stereo unspecified) [SULFINPYRAZONE]
- IC50 [1]: Not Active
- IC50 (B2 bradykinin receptor): Not Active
- IC50 (Cannabinoid receptor 1): Not Active
- IC50 (D(4) dopamine receptor): Not Active
- IC50 [2]: Not Active
- Ki [2]: Not Active
- IC50 [3]: Not Active
- Ki [3]: Not Active
- IC50 [4]: Not Active

Compound: NC(=O)N1C(=O)/C(=C(\O)c2cccs2)c2cc(Cl)ccc21 [TENIDAP]
- IC50 [1]: Not Active
- IC50 (B2 bradykinin receptor): Not Active
- IC50 (Cannabinoid receptor 1): Not Active
- IC50 (D(4) dopamine receptor): Not Active
- IC50 [2]: Not Active
- Ki [2]: Not Active
- IC50 [3]: Not Active
- Ki [3]: Not Active
- IC50 [4]: Not Active

Compound: COc1cc2nc(N3CCN(C(=O)C4CCCO4)CC3)nc(N)c2cc1OC (stereo unspecified) [TERAZOSIN]
- IC50 [1]: Not Active
- IC50 (B2 bradykinin receptor): Not Active
- IC50 (Cannabinoid receptor 1): Not Active
- IC50 (D(4) dopamine receptor): Not Active
- IC50 [2]: Not Active
- Ki [2]: Not Active
- IC50 ([3]; read-out: IC50): 1270 nM
- Ki ([3]; read-out: Ki): 846 nM
- IC50 [4]: Not Active

Compound: CN(C/C=C/C#CC(C)(C)C)Cc1cccc2ccccc12 [TERBINAFINE]
- IC50 [1]: Not Active
- IC50 (B2 bradykinin receptor): Not Active
- IC50 (Cannabinoid receptor 1): Not Active
- IC50 (D(4) dopamine receptor): Not Active
- IC50 [2]: Not Active
- Ki [2]: Not Active
- IC50 [3]: Not Active
- Ki [3]: Not Active
- IC50 [4]: Not Active

Compound: CCCCNc1ccc(C(=O)OCCN(C)C)cc1 [TETRACAINE]
- IC50 [1]: Not Active
- IC50 (B2 bradykinin receptor): Not Active
- IC50 (Cannabinoid receptor 1): Not Active
- IC50 (D(4) dopamine receptor): Not Active
- IC50 [2]: Not Active
- Ki [2]: Not Active
- IC50 [3]: Not Active
- Ki [3]: Not Active
- IC50 [4]: Not Active

Compound: Cn1c(=O)c2nc[nH]c2n(C)c1=O.O [THEOPHYLLINE]
- IC50 [1]: Not Active
- IC50 (B2 bradykinin receptor): Not Active
- IC50 (Cannabinoid receptor 1): Not Active
- IC50 (D(4) dopamine receptor): Not Active
- IC50 [2]: Not Active
- Ki [2]: Not Active
- IC50 [3]: Not Active
- Ki [3]: Not Active
- IC50 [4]: Not Active

Compound: CS(=O)(=O)c1ccc([C@@H](O)[C@@H](CO)NC(=O)C(Cl)Cl)cc1 [THIAMPHENICOL]
- IC50 [1]: Not Active
- IC50 (B2 bradykinin receptor): Not Active
- IC50 (Cannabinoid receptor 1): Not Active
- IC50 (D(4) dopamine receptor): Not Active
- IC50 [2]: Not Active
- Ki [2]: Not Active
- IC50 [3]: Not Active
- Ki [3]: Not Active
- IC50 [4]: Not Active

Compound: CCN(CC)CCNC(=O)c1cc(S(C)(=O)=O)ccc1OC [TIAPRIDE]
- IC50 [1]: Not Active
- IC50 (B2 bradykinin receptor): Not Active
- IC50 (Cannabinoid receptor 1): Not Active
- IC50 (D(4) dopamine receptor): Not Active
- IC50 [2]: Not Active
- Ki [2]: Not Active
- IC50 [3]: Not Active
- Ki [3]: Not Active
- IC50 [4]: Not Active

Compound: Clc1ccccc1CN1CCc2sccc2C1 [TICLOPIDINE]
- IC50 [1]: Not Active
- IC50 (B2 bradykinin receptor): Not Active
- IC50 (Cannabinoid receptor 1): Not Active
- IC50 (D(4) dopamine receptor): Not Active
- IC50 [2]: Not Active
- Ki [2]: Not Active
- IC50 ([3]; read-out: IC50): 2240 nM
- Ki ([3]; read-out: Ki): 1490 nM
- IC50 [4]: Not Active

Compound: NC1CCN(c2nc3c(cc2F)c(=O)c(C(=O)O)cn3-c2ccc(F)cc2F)C1 (stereo unspecified) [TOSUFLOXACIN]
- IC50 [1]: Not Active
- IC50 (B2 bradykinin receptor): Not Active
- IC50 (Cannabinoid receptor 1): Not Active
- IC50 (D(4) dopamine receptor): Not Active
- IC50 [2]: Not Active
- Ki [2]: Not Active
- IC50 [3]: Not Active
- Ki [3]: Not Active
- IC50 [4]: Not Active

Compound: O=C(Nc1ccc(Br)cc1)c1cc(Br)cc(Br)c1O [TRIBROMSALAN]
- IC50 [1]: Not Active
- IC50 (B2 bradykinin receptor): Not Active
- IC50 (Cannabinoid receptor 1): Not Active
- IC50 (D(4) dopamine receptor): Not Active
- IC50 [2]: Not Active
- Ki [2]: Not Active
- IC50 [3]: Not Active
- Ki [3]: Not Active
- IC50 [4]: Not Active

Compound: CC(c1cc2ccccc2s1)N(O)C(N)=O (stereo unspecified) [ZILEUTON]
- IC50 [1]: Not Active
- IC50 (B2 bradykinin receptor): Not Active
- IC50 (Cannabinoid receptor 1): Not Active
- IC50 (D(4) dopamine receptor): Not Active
- IC50 [2]: Not Active
- Ki [2]: Not Active
- IC50 [3]: Not Active
- Ki [3]: Not Active
- IC50 [4]: Not Active

Compound: MANGANESE CHLORIDE ANHYDROUS
- IC50 [1]: Not Active
- Ki [1]: Not Active
- IC50 (B2 bradykinin receptor): Not Active
- Ki (B2 bradykinin receptor): Not Active
- IC50 (Cannabinoid receptor 1): Not Active
- Ki (Cannabinoid receptor 1): Not Active
- IC50 (D(4) dopamine receptor): Not Active
- Ki (D(4) dopamine receptor): Not Active
- IC50 [2]: Not Active
- Ki [2]: Not Active
- IC50 [3]: Not Active
- Ki [3]: Not Active
- IC50 [4]: Not Active
- Ki [4]: Not Active

Compound: SODIUM ORTHOVANAD
- IC50 [1]: Not Active
- Ki [1]: Not Active
- IC50 (B2 bradykinin receptor): Not Active
- Ki (B2 bradykinin receptor): Not Active
- IC50 (Cannabinoid receptor 1): Not Active
- Ki (Cannabinoid receptor 1): Not Active
- IC50 (D(4) dopamine receptor): Not Active
- Ki (D(4) dopamine receptor): Not Active
- IC50 [2]: Not Active
- Ki [2]: Not Active
- IC50 [3]: Not Active
- Ki [3]: Not Active
- IC50 [4]: Not Active
- Ki [4]: Not Active
